What was measured:
Type in all cases: cell-based
MOLT 4 = assay: MTT cytotoxicity assay, MOLT 4 leukemia; conditions: Homo sapiens
Description: (§1) Briefly, a […] MTT cytotoxicity assay was performed, which is based on the principle of uptake of MTT (3-(4,5-dimethylthiazol-2-yl)-2,5-diphenyl tetrazolium bromide), a tetrazolium salt, by the metabolically active cells where it is metabolized by active mitochondria into a blue colored formazan product that is read spectrophoto-metrically. MTT was dissolved in phosphate buffered saline with a pH of 7.4 to obtain an MTT concentration of 5 mg/ml; the resulting mixture was filtered through a 0.22 micron filter to sterilize and remove a small amount of insoluble residue. For each type of tumor cell, 20,000 to 50,000 cells were seeded in a 96-well culture plate and incubated with the combination in a CO2 incubator for 24 hours. […] The assay was terminated after 24 hours by adding 100 ug (20 ul) of MTT to each well, then incubating for additional one hour, and finally adding 50 ul of 10% SDS-0.01N HCl to each well to lyse the cells and dissolve formazan. After incubating for one hour, the plate was read spectrophotometrically at 540 nm and the percentage cytotoxicity calculated.

U87MG = assay: MTT cytotoxicity assay, U87MG glioblastoma; conditions: Homo sapiens, U-87 MG, 24 h, read-out: ED50 values of cytotoxicity
Description: as §1

Hep2 = assay: MTT cytotoxicity assay, Hep2 larynx; conditions: Homo sapiens, HEp-2, 24 h, read-out: ED50 values of cytotoxicity
Description: as §1

KB = assay: MTT cytotoxicity assay, KB oral; conditions: Homo sapiens, 24 h, read-out: ED50 values of cytotoxicity
Description: as §1

MCF7 = assay: MTT cytotoxicity assay, MCF7 breast; conditions: Homo sapiens
Description: as §1

293 = assay: MTT cytotoxicity assay, 293 kidney; conditions: Homo sapiens, HEK293, 24 h, read-out: ED50 values of cytotoxicity
Description: as §1

PA 1 = assay: MTT cytotoxicity assay, PA 1 ovary; conditions: Homo sapiens
Description: as §1

PTC = assay: MTT cytotoxicity assay, PTC colon; conditions: Homo sapiens
Description: as §1

Miapaca2 = assay: MTT cytotoxicity assay, Miapaca2 pancreas; conditions: Homo sapiens
Description: as §1

L132 = assay: MTT cytotoxicity assay, L132 lung; conditions: Homo sapiens
Description: as §1

DU145 = assay: MTT cytotoxicity assay, DU145 prostate; conditions: Homo sapiens
Description: as §1

INT 407 = assay: MTT cytotoxicity assay, INT 407 intestine; conditions: Homo sapiens, 24 h, read-out: ED50 values of cytotoxicity
Description: as §1

[1] = 1.0 mM, read-out: Percent cytotoxicity
[2] = 2.5 mM, read-out: Percent cytotoxicity
[3] = 4 mM, read-out: Percent cytotoxicity
[4] = 5 mM, read-out: Percent cytotoxicity
[5] = 10 mM, read-out: Percent cytotoxicity
[6] = 24 h, read-out: ED50 values of cytotoxicity

**Q.** How did the IC50 (MOLT 4; 24 h, Molt 4 Leukemia, read-out: ED50 values of cytotoxicity) turn out when `CCCCOC(=O)C1CCC(=O)N1C(OC(C)=O)C(C)=O` (centres unmarked) [MGC-5, N-(1-acetoxy-2-ketopropyl)-butylpyroglutamate] was run?
**A.** Its IC50 is 1.5 ± 0.1 mM.

**Q.** And the cytotoxicity at 1000 µM (MOLT 4; MOLT 4 Leukemia, 1.0 mM, read-out: Percent cytotoxicity)?
**A.** Its cytotoxicity at 1000 µM is 25.9 ± 2.9%.

**Q.** What about the cytotoxicity at 2500 µM (MOLT 4; MOLT 4 Leukemia, 2.5 mM, read-out: Percent cytotoxicity) of the same compound?
**A.** The cytotoxicity at 2500 µM was 61 ± 4.8%.

**Q.** And the cytotoxicity at 4000 µM (MOLT 4; MOLT 4 Leukemia, 4 mM, read-out: Percent cytotoxicity)?
**A.** Its cytotoxicity at 4000 µM is 76 ± 7.1%.

**Q.** And the cytotoxicity at 5000 µM (MOLT 4; MOLT 4 Leukemia, 5 mM, read-out: Percent cytotoxicity)?
**A.** Its cytotoxicity at 5000 µM is 82.9 ± 6.9%.

**Q.** And the cytotoxicity at 10000 µM (MOLT 4; MOLT 4 Leukemia, 10 mM, read-out: Percent cytotoxicity)?
**A.** The cytotoxicity at 10000 µM was 87.9 ± 6.9%.

**Q.** What about the IC50 (U87MG) of the same compound?
**A.** Its IC50 is 3.4 ± 1.1 mM.

**Q.** What about the IC50 (Hep2) of the same compound?
**A.** Its IC50 is 1.9 mM.

**Q.** And the IC50 (KB)?
**A.** Its IC50 is 2 ± 0.7 mM.

**Q.** What about the IC50 (MCF7; MCF7, 24 h, MCF 7 Breast, read-out: ED50 values of cytotoxicity) of the same compound?
**A.** The IC50 was 5 ± 2.1 mM.

**Q.** And the cytotoxicity at 1000 µM (MCF7; MCF7 breast, 1.0 mM, read-out: Percent cytotoxicity)?
**A.** The cytotoxicity at 1000 µM was 0%.

**Q.** And the cytotoxicity at 2500 µM (MCF7; MCF7 breast, 2.5 mM, read-out: Percent cytotoxicity)?
**A.** Its cytotoxicity at 2500 µM is 0%.

**Q.** What about the cytotoxicity at 4000 µM (MCF7; MCF7 breast, 4 mM, read-out: Percent cytotoxicity) of the same compound?
**A.** Its cytotoxicity at 4000 µM is 34.9 ± 3.9%.

**Q.** What about the cytotoxicity at 5000 µM (MCF7; MCF7 breast, 5 mM, read-out: Percent cytotoxicity) of the same compound?
**A.** The cytotoxicity at 5000 µM was 51.9 ± 3.8%.

**Q.** What about the cytotoxicity at 10000 µM (MCF7; MCF7 breast, 10 mM, read-out: Percent cytotoxicity) of the same compound?
**A.** The cytotoxicity at 10000 µM was 58.7 ± 5%.

**Q.** What about the IC50 293 of the same compound?
**A.** Its IC50 is 1.9 ± 0.7 mM.

**Q.** What about the IC50 (PA 1; 24 h, PA 1 Ovarian, read-out: ED50 values of cytotoxicity) of the same compound?
**A.** Its IC50 is 1.6 ± 0.1 mM.

**Q.** And the cytotoxicity at 1000 µM (PA 1; PA 1 Ovary, 1.0 mM, read-out: Percent cytotoxicity)?
**A.** Its cytotoxicity at 1000 µM is 31.8 ± 3.1%.

**Q.** What about the cytotoxicity at 2500 µM (PA 1; PA 1 Ovary, 2.5 mM, read-out: Percent cytotoxicity) of the same compound?
**A.** Its cytotoxicity at 2500 µM is 58.8 ± 5.3%.

**Q.** And the cytotoxicity at 4000 µM (PA 1; PA 1 Ovary, 4 mM, read-out: Percent cytotoxicity)?
**A.** Its cytotoxicity at 4000 µM is 83.9 ± 7.8%.

**Q.** And the cytotoxicity at 5000 µM (PA 1; PA 1 Ovary, 5 mM, read-out: Percent cytotoxicity)?
**A.** Its cytotoxicity at 5000 µM is 85.9 ± 6.2%.

**Q.** And the cytotoxicity at 10000 µM (PA 1; PA 1 Ovary, 10 mM, read-out: Percent cytotoxicity)?
**A.** The cytotoxicity at 10000 µM was 86.9 ± 8.4%.

**Q.** What about the cytotoxicity at 1000 µM (PTC; [1]) of the same compound?
**A.** Its cytotoxicity at 1000 µM is 2.9 ± 0.3%.

**Q.** What about the cytotoxicity at 2500 µM (PTC; [2]) of the same compound?
**A.** The cytotoxicity at 2500 µM was 37.9 ± 3.9%.

**Q.** And the cytotoxicity at 4000 µM (PTC; [3])?
**A.** Its cytotoxicity at 4000 µM is 53.9 ± 5.4%.

**Q.** And the cytotoxicity at 5000 µM (PTC; [4])?
**A.** The cytotoxicity at 5000 µM was 85.9 ± 8.9%.

**Q.** And the cytotoxicity at 10000 µM (PTC; [5])?
**A.** The cytotoxicity at 10000 µM was 89.2 ± 7.4%.

**Q.** And the IC50 (PTC; [6])?
**A.** The IC50 was 3.8 ± 0.9 mM.

**Q.** And the cytotoxicity at 1000 µM (Miapaca2; MIA PaCa-2, 1.0 mM, read-out: Percent cytotoxicity)?
**A.** The cytotoxicity at 1000 µM was 0%.

**Q.** What about the cytotoxicity at 2500 µM (Miapaca2; MIA PaCa-2, 2.5 mM, read-out: Percent cytotoxicity) of the same compound?
**A.** The cytotoxicity at 2500 µM was 24.8 ± 2.6%.

**Q.** What about the cytotoxicity at 4000 µM (Miapaca2; MIA PaCa-2, 4 mM, read-out: Percent cytotoxicity) of the same compound?
**A.** Its cytotoxicity at 4000 µM is 43.8 ± 3.9%.

**Q.** And the cytotoxicity at 5000 µM (Miapaca2; MIA PaCa-2, 5 mM, read-out: Percent cytotoxicity)?
**A.** The cytotoxicity at 5000 µM was 54.9 ± 4.2%.

**Q.** What about the cytotoxicity at 10000 µM (Miapaca2; MIA PaCa-2, 10 mM, read-out: Percent cytotoxicity) of the same compound?
**A.** The cytotoxicity at 10000 µM was 67.9 ± 4%.

**Q.** What about the IC50 (Miapaca2; MIA PaCa-2, 24 h, read-out: ED50 values of cytotoxicity) of the same compound?
**A.** The IC50 was 4.3 ± 1.6 mM.

**Q.** And the cytotoxicity at 1000 µM (L132; [1])?
**A.** Its cytotoxicity at 1000 µM is 2.9 ± 0.1%.

**Q.** What about the cytotoxicity at 2500 µM (L132; [2]) of the same compound?
**A.** Its cytotoxicity at 2500 µM is 36.9 ± 4.9%.

**Q.** What about the cytotoxicity at 4000 µM (L132; [3]) of the same compound?
**A.** The cytotoxicity at 4000 µM was 57.8 ± 4%.

**Q.** What about the cytotoxicity at 5000 µM (L132; [4]) of the same compound?
**A.** The cytotoxicity at 5000 µM was 59 ± 6%.

**Q.** What about the cytotoxicity at 10000 µM (L132; [5]) of the same compound?
**A.** The cytotoxicity at 10000 µM was 76.3 ± 5.4%.

**Q.** And the IC50 (L132; [6])?
**A.** Its IC50 is 3.6 ± 1.1 mM.

**Q.** And the cytotoxicity at 1000 µM (DU145; DU-145, 1.0 mM, read-out: Percent cytotoxicity)?
**A.** Its cytotoxicity at 1000 µM is 27.9 ± 0.4%.

**Q.** What about the cytotoxicity at 2500 µM (DU145; DU-145, 2.5 mM, read-out: Percent cytotoxicity) of the same compound?
**A.** The cytotoxicity at 2500 µM was 58.4 ± 5.9%.

**Q.** What about the cytotoxicity at 4000 µM (DU145; DU-145, 4 mM, read-out: Percent cytotoxicity) of the same compound?
**A.** Its cytotoxicity at 4000 µM is 59 ± 4.3%.

**Q.** What about the cytotoxicity at 5000 µM (DU145; DU-145, 5 mM, read-out: Percent cytotoxicity) of the same compound?
**A.** Its cytotoxicity at 5000 µM is 68.3 ± 4.6%.

**Q.** What about the cytotoxicity at 10000 µM (DU145; DU-145, 10 mM, read-out: Percent cytotoxicity) of the same compound?
**A.** Its cytotoxicity at 10000 µM is 80 ± 7%.

**Q.** And the IC50 (DU145; DU-145, 24 h, read-out: ED50 values of cytotoxicity)?
**A.** The IC50 was 1.9 ± 0.7 mM.

**Q.** What about the IC50 (INT 407) of the same compound?
**A.** The IC50 was 2.6 ± 1.1 mM.

Reference: US20030118627A1 (DABUR RESEARCH FOUNDATION, priority 2001, published 2003)
